The target of one data set is T1, rat NPT-IIb (Rattus norvegicus, UniProt Q9JJ09).
T1 construct: rat NPT-IIb ORF was cloned into p3×FLAG-CMV-10; 3xFLAG (N); expressed in transfected cells
T1 sequence (Q9JJ09 1-695): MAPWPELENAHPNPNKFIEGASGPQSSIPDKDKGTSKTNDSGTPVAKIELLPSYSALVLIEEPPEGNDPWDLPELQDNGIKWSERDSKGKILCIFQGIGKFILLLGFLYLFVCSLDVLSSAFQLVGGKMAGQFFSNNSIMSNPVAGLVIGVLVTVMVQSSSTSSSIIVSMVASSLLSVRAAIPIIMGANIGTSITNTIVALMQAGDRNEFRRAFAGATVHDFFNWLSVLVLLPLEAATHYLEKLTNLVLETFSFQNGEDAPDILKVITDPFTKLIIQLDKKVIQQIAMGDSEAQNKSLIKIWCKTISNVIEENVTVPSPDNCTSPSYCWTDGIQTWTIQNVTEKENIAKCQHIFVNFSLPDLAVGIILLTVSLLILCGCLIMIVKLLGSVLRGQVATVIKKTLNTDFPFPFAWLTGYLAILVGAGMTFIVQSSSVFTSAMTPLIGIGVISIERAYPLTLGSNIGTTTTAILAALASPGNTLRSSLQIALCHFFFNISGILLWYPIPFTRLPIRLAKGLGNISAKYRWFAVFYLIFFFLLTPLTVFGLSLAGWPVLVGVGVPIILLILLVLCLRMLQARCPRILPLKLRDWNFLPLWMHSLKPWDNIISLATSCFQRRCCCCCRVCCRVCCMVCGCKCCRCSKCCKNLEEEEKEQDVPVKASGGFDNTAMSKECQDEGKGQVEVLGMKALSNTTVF
As to the kind of experiment: 33P phosphate uptake inhibiting action of rat NPT-IIb expressing cell. To be noted: HEK293; evaluation concentration 1 μM; 33P uptake in rat NPT-IIb stably expressing 293 cells; read-out: Rat NPT-IIb inhibitory rate (%). It is filed as cell-based. An excerpt: Test Example 1: ^33P Phosphate Uptake Inhibiting Action of Rat NPT-IIb Expressing Cell
Preparation of Rat NPT-IIb Expressing Cell
Using rat small intestine cDNA library as a template, rat NPT-IIb ORF was cloned into p3×FLAG-CMV-10 by PCR according to a standard method. Then, the cloned rat NPT-IIb expressing plasmid was transfected into 293 cells, and G418 was used to obtain a rat NPT-11b-stably expressing cell line.
Evaluation System on Inhibition of Phosphate Uptake into Rat NPT-IIb Expressing Cell
The rat NPT-Hb expressing cells were seeded into a 96-well plate and incubated overnight. The medium was taken out and washed with buffer A (137 mM N-methyl-D-glucamine, 5.4 mM KCl, 2.8 mM CaCl2, 1.2 mM MgCl2, 10 mM HEPES (adjusted to pH 7.4 with HCl)), and then buffer B (137 mM NaCl, 5.4 mM KCl, 2.8 mM CaCl2, 1.2 mM MgCl2, 0.1 mM KH2PO4, 10 mM HEPES (adjusted to pH 7.4 with KOH)) was added thereto. Then, a compound having 10-fold higher concentration relative to the evaluation concentration was prepared by dilution with the buffer B and added thereto, followed by incubation in CO2 incubator. Buffer B supplemented 50 μCi/mL ^33P was added thereto, followed by further incubation in a CO2 incubator. After the reaction, the buffer was taken out and the cells were washed with buffer C (137 mM NaCl, 10 mM Tris/HCl pH 7.2). Then, Microscint-20 was added thereto and ^33P uptake was measured by using TopCount. The inhibitory rate was determined according to the following equation.
Inhibitory rate (%)=(1−(^33P uptake of drug-treated well)/(^33P uptake of DMSO-added well))×100
For several compounds of the formula (I), rat NPT-11b inhibitory activity at a pharmacological evaluation concentration of 1 μM is shown in Table 1. Here, Ex represents Example No. as denoted below (this shall apply hereinafter).

The test system of data set [1] is orally 32P phosphate loaded rats. Put plainly: Blood radioactivity increase inhibiting action in orally 32P phosphate loaded rats (phosphate absorption inhibitory action). It is filed as in vivo. Conditions: Rattus norvegicus, 0.5 h; 3 mg/kg oral, male Wistar rats; from serum radioactivity AUC0-30min vs control group; read-out: Phosphate absorption inhibitory rate (%). The protocol: Blood Radioactivity Increase Inhibiting Action in Orally ^32P Phosphate Loaded Rats (Phosphate Absorption Inhibitory Action)
Male Wistar rats (6 to 7 weeks old) were fasted for 24 hours and used as experimental animals. The compound was dissolved or suspended with a solvent, and was used at a concentration of 0.6 mg/mL. The compound-administered animals were forcibly orally administered with the compound at a dose of 3 mg/kg. Control-group animals were administered a solvent containing no compound at a dose of 5 mL/kg. After 5 minutes from administration of the compound or from administration of the solvent, a ^32P-containing phosphate solution (8.3 mM NaH2PO4) was orally administered thereto at a dose of 7.2 mL/kg. After 15 minutes and 30 minutes, the blood was taken from the orbital venous plexus and the serum was collected. Radioactivity in 0.1 mL of the serum was measured by a liquid scintillation counter. AUC0-30min calculated from the measured counts was considered as a phosphate absorption amount. The phosphate absorption inhibitory rate was determined from the AUC0-30min value according to the following equation.
Phosphate absorption inhibitory rate (%)=(1−Phosphate absorption count of compound-administered group/Phosphate absorption count of control group)×100
As a result, it was confirmed that several compounds of the formula (I) have an intestinal phosphate absorption inhibitory action. With the several compounds of the formula (I), the phosphate absorption inhibitory rates at a pharmacological evaluation dose of 3 mg/kg are shown in Table 2.

`CCN([C@H]1CC[C@H](C(=O)O)CC1)S(=O)(=O)c1cccc(C(=O)Nc2sc3c(c2C(=O)Nc2ccc(CCCc4ccc(C(=O)O)cc4)cc2)CCCC3)c1` [Example 23, 4-{3-[4-({[2-({3-[(trans-4-carboxycyclohexyl)(ethyl)sulfamoyl]benzoyl}amino)-4,5,6,7-tetrahydro-1-benzothiophen-3-yl]carbonyl}amino)phenyl]propyl}benzoic acid] displayed a melting point of 178.5 °C. The inhibition at 1 µM on rat NPT-IIb worked out at 86%. Moreover, the inhibition in vivo at 3 mg/kg in data set [1] was not below 60%.

`O=C(O)CCCCN(C1CC1)S(=O)(=O)c1cccc(C(=O)Nc2sc3c(c2C(=O)Nc2ccc(CCc4ccc(C(=O)O)cc4)cc2)CCCC3)c1` [Example 34, 4-{2-[4-({[2-({3-[(4-carboxybutyl)(cyclopropyl)sulfamoyl]benzoyl}amino)-4,5,6,7-tetrahydro-1-benzothiophen-3-yl]carbonyl}amino)phenyl]ethyl}benzoic acid]: the melting point worked out at 220.1 °C. The inhibition at 1 µM on rat NPT-IIb worked out at 80%. Moreover, in data set [1], the inhibition in vivo at 3 mg/kg was not below 60%.

As usually defined, the melting point is the temperature of the solid-liquid transition.

The record behind these values is patent US20130029973A1, “TETRAHYDROBENZOTHIOPHENE COMPOUND” (ASTELLAS PHARMA INC., priority 2010, published 2013).
